{
  "source": "patent US20220062268A1",
  "about": "“PHARMACEUTICAL COMPOSITION FOR THE TREATMENT OF PARKINSON'S DISEASE” (Teva Pharmaceuticals International GmbH, priority 2014, published 2022)",
  "key": {"[1]": {"system": "MPTP monkey model of Parkinson's disease", "experiment": "MPTP monkey model of Parkinson's disease: tremor and Good ON", "type": "in vivo, Macaca fascicularis", "conditions": "MPTP macaques; DP-102 versus same dose of L-DOPA; tremor score summed over 3 hours post dose; FIG. 1", "procedure": "Macaques (Macaca fascicularis) were rendered parkinsonian by repeated daily injections of MPTP hydrochloride (0.2 mg/kg, i.v.) until parkinsonian signs appeared. The degree of parkinsonism was assessed using a validated parkinsonian macaque clinical scale which rates the following symptoms of parkinsonian disability: tremor (0-3), variations in the general level of activity (0-3), body posture (flexion of spine; 0-3), vocalization (0-2), freezing (0-2), frequency of arm movements (reaching for food, 0-3 for each upper limb), and rigidity (0-3 for each upper limb).\nThe maximum parkinsonian disability score was 25. MPTP administration was stopped when a score of 6 was reached on the above scale (usually day 13-17). The macaques were left untreated, for a minimum of 6 weeks, until their parkinsonism became stable.\nThis study assessed the test item in a within-subject design with an intra-individually escalating dosage regimen.\nEight animals were randomly assigned to one of two treatment sequence groups (1: AB, 2: BA). […]\nTremor was assessed for 3 hours post L-DOPA administration for 10 minutes every 30 minutes, by post hoc analysis of video recordings by a trained assessor blinded to the study treatments. […]\nThe anti-parkinsonian action was evaluated based upon the “ON” state of the animals. […]"}, "striatal dopamine": {"system": "striatal dopamine", "conditions": "compared to L-DOPA, cited from earlier work"}, "Parkinson models": {"system": "Parkinson models", "conditions": "cited from earlier work"}, "[2]": {"conditions": "neutral pH; cited from earlier work"}, "late Parkinson's disease": {"system": "late Parkinson's disease", "conditions": "cited from earlier work"}},
  "note": "Entries after “also recorded” stand apart in the source; their conditions may differ. Read-outs that look alike come from different tables or passages of the source.",
  "data": [
    {"smiles": "[2H]C([2H])(c1ccc(O)c(O)c1)[C@]([2H])(N)C(=O)O", "note": "[DP-102, L-2-Amino-2,3,3-trideutero-3-(3,4-dihydroxyphenyl) propionic acid]", "values": [
      {"measurement": "tremor in relation to Good ON", "setting": "[1]", "value": "less tremor at more Good ON"},
      {"measurement": "striatal dopamine levels", "setting": "striatal dopamine; listed as α,β,β-D3-L-DOPA", "value": "higher longer-lasting striatal dopamine levels than L-DOPA; also recorded: increase and prolong the output of striatal dopamine significantly more than L-DOPA"},
      {"measurement": "equi-effective dose compared to L-DOPA", "setting": "Parkinson models; in vivo", "value": "about 60%"},
      {"measurement": "motor activity", "setting": "Parkinson models; several Parkinson models, compared to L-DOPA", "value": "improved motor activity compared to L-DOPA"}
    ]},
    {"smiles": "N[C@@H](Cc1ccc(O)c(O)c1)C(=O)O", "note": "[L-DOPA, (2S)-2-amino-3-(3,4-dihydroxyphenyl)propanoic acid, reference compound]", "values": [
      {"measurement": "tremor in relation to Good ON", "setting": "[1]", "value": "higher or observed at lower Good ON levels"},
      {"measurement": "solubility", "setting": "[2]", "value": "poorly dissolved at neutral pH"}
    ]},
    {"smiles": "CN1CCc2cccc3c2[C@H]1Cc1ccc(O)c(O)c1-3", "note": "[apomorphine]", "values": [
      {"measurement": "dose of oral L-DOPA under infused apomorphine", "setting": "late Parkinson's disease; daily dose of infused apomorphine 72.00±21.38 mg, reduced from 989.4±420.1 mg/day (Ruiz et al.)", "value": "663.8 ± 403.2", "unit": "mg/day"},
      {"measurement": "reduction of L-DOPA", "setting": "late Parkinson's disease; mean daily apomorphine dose of 75.2 mg (Katzenschlager et al.)", "value": 55, "unit": "%"}
    ]},
    {"smiles": "[2H][C@@H](c1ccc(O)c(O)c1)[C@]([2H])(N)C(=O)O", "note": "[α,β-D2-L-DOPA, S/S-2-amino-2,3-dideutero-3-(3,4-dihydroxyphenyl) propionic acid]", "values": [
      {"measurement": "striatal dopamine levels", "setting": "striatal dopamine", "value": "increase and prolong the output of striatal dopamine significantly more than L-DOPA; also recorded: highest striatal dopamine concentrations"}
    ]}
  ]
}
